Test results as given in patent US20060193804A1, “Haircare use of cyclic amine derivatives” (L'OREAL, priority 2005, published 2006).

Test system: human striated muscle cells innervated with explants of rat embryonic spinal ganglia and spinal cord
Assay: nerve/muscle coculture model: frequency of muscle fiber contractions
Assay type: cell-based
Conditions: for inhibition at 10 µM: Homo sapiens, concentration of 10^−5 M, contractions counted over 30 seconds after incubation for 60 seconds, read-out: inhibition of the frequency of contraction of the muscle fibers
Description: Compounds 1 and 2 were tested at a given concentration, on a model of nerve/muscle coculture, which makes it possible to recreate a motor arc by innervating human striated muscle cells with explants of rat embryonic spinal ganglia and spinal cord.
This test is predictive of an inhibitory effect on muscle fiber contractions.
The protocol adopted is as follows:
Human myoblasts (primary culture of human muscle cells, M1b) were inoculated in 24-well plates. The culture medium is a mixture of ⅔ MEM (Invitrogen 21090-022), ⅓ M199 (Invitrogen 31153-026) and 5% FCS. At confluence, spinal cord explants from 13-day-old rat embryos are placed on the primary culture. The first contractions of the muscle fibers are observed after one week of coculture. After three weeks, these muscle fibers are striated and have mature differentiated neuromuscular junctions.
The products are tested in triplicate (3 fibers analysed) at two concentrations. For each culture well, a muscle fiber having regular contractions (>60 contractions per minute) is selected and the number of contractions is counted over 30 seconds. The test product is then added to the culture medium under a microscope without moving the microscope stage. After incubation for 60 seconds, the number of contractions is again counted over 30 seconds. The whole experiment is recorded using a digital camera. The videos are saved on an electronic medium.

SMILES | inhibition at 10 µM [%] | dose-response effect on contraction of the muscle fibers
c1ccc(CCCC2CCN(CCCc3ccccc3)CC2)cc1 [Compound 2] | ~55 | –
c1ccc(CCCCN2CCC(c3ccccc3)CC2)cc1 [Compound 1] | 50 | induces a dose-response effect
